Here are results for ten compounds from patent publication US6755971B2, “Microbiological removal of bromine salts from fluid streams” (AKZO Nobel N.V., priority 1999, dated 2004).

One data set relates to mixed culture. The data set is described as follows: Growth experiments with various carbon sources. Note: key: ++: Extensive growth; +: Growth (based on turbidity of culture); +/−: Slight increase in turbidity. It is filed as cell-based. Conditions: 24 mM substrate, 10 mM chlorate, 30° C., turbidity. How it is done: Growth of the mixed culture with different carbon and energy sources was determined in 100 ml serum bottles with gas-tight caps filled up to 75% of their volume with mineral salts medium and 24 mM of the substrate and incubated at 30° C. Chlorate was added at a concentration of 10 mM. Growth was followed by determination of the turbidity (visually). The cultures were made anoxic by being flushed with nitrogen gas for approximately 5 minutes. Growth was followed for a maximum period of 2 months.

In data set [1] the test system is micro-organisms immobilised on pumice particles. Kind of data set: Bacterial growth inhibition test with sulfite. The conditions noted are these: 5 days. Type of data set: cell-based. As for the experimental part: (§1) Batch experiments were conducted in 110 ml gas-tight glass vessels, which were filled with 10 ml of mineral medium. The gas-phase and the medium in the vessels were flushed with nitrogen. Hydrogen gas was supplied by injection of a known amount using a gas-tight syringe (up to 150 kPa). Vessels were incubated at 30° C. in a shaking water bath. Micro-organisms immobilised on pumice particles were withdrawn from the gas-lift reactor whenever steady state conditions were reached and washed twice with phosphate buffer (20 mM) before use. These immobilised micro-organisms were used to inoculate the cultures. Various salt concentrations in the batch cultures were obtained by adding various amounts of sodium chloride. Sodium sulfite was added to cultures in various amounts from a freshly prepared stock solution. The test vessels for the growth experiments were inoculated by injecting 5 ml of effluent from the reactor. The micro-organisms in the effluent were washed three times with phosphate buffer (20 mM) and concentrated to 0.5 ml by centrifugation (10,000 g, 15 min). 4.4 Analytical Procedures
Besides chlorate and […] the waste water also contains small amounts of hypochlorite. Since hypochlorite is a biocide, removal of this compound before biological treatment is necessary. Hypochlorite can be removed instantly from the waste water using sulfite as reductant. This procedure could be used prior to the biological treatment. To examine whether sulfite is toxic to micro-organisms immobilised on the pumice particles, a toxicity test was performed. Growth was determined after 5 days, and was compared to a control culture without sulfite. The growth was determined by measuring the formation of chloride.

Data set [2] concerns chlorate-reducing mixed culture. The conditions noted are these: up to a concentration of 12 mM, separate experiments.
Protocol: These cultures were inoculated with 1 ml of an exponentially growing culture. […] These cultures were anaerobically incubated at 30° C. in a water bath. The turbidity was measured using a Nephelometer (Hack Ratio XR, Loveland, USA). The turbidity was plotted against time for each of the concentrations and the control. The growth was derived from the slope of the regression line in a plot of In OD 660 versus time. The percentage inhibition of the growth at each concentration was calculated. […] Confidence limits were calculated on the basis of Fieller's theorem. All computations were performed using a statistical software program (SAS, Cary, N.C., USA).
Growth was followed for approximately 8 hours.
The subject of data set [3] is micro-organisms immobilised on pumice particles. The data set is described as follows: Influence of high salt concentration on microbial activity (batch). It is filed as cell-based. As for the experimental part:
as §1
The effect of increased salt concentration in the reactor was investigated in batch experiments. The activity of the micro-organisms immobilised on pumice particles in the batch experiment decreased only slightly with increasing salinity, as indicated in FIG. 19. […]

Consider `NCC(=O)O` [glycine], for which the Growth result with mixed culture is “+/−”.

As to `O=C(O)CCC(=O)O` [succinate], the Growth result in the data set on mixed culture is given as “++”.

Regarding `CCC(=O)O` [propionate], the Growth entry in the data set with mixed culture is reported as “++”.

With `O=S([O-])[O-].[Na+].[Na+]` [Sulfite, sodium sulfite], the Growth inhibition is recorded as 4% in data set [1] (sulfite 15 mg/l), 0% in data set [1] (sulfite 45 mg/l), 6% in data set [1] (sulfite 135 mg/l) and 7% in data set [1] (sulfite 405 mg/l).

Regarding `CC(O)C(=O)O` (centres unmarked) [lactate], the Growth result in the data set on mixed culture was “+”.

With `CCO` [ethanol], the Growth result in the data set with mixed culture is “++”.

In the case of `CC(=O)O` [acetate], the Growth result in the data set with mixed culture was “++”.

In the case of `O=C(O)CC(O)C(=O)O` (centres unmarked) [malate], in the data set with mixed culture, the Growth entry was “++”.

With `[O-][Cl+2]([O-])O` [chlorate], the “toxicity to the mixed culture” value in data set [2] is “not toxic”.

On to `[Cl-].[Na+]` [sodium chloride], for which the “effects of increased salinity on activity” value in data set [3] (40 g/l) is reported as “substantial”. For the same compound, in data set [3] (concentration of 30 μl sodium chloride, unacclimatised micro-organisms), the “activity (chlorate reduction) relative to the maximum” value was “more than 80%”.
